From the OligoGym collection
After the bases stand the sugars from the 5' end (letter, count) and the backbone: PS all phosphorothioate, else s phosphorothioate and o phosphodiester by linkage. Methylation of C is not given here. e = 2'-O-(2-methoxyethyl) (MOE); k = constrained ethyl (cEt); d = 2'-deoxy (DNA)

Target: SOD1
Conditions: ASO

Q: With “TTCCCCACACCTTCACT (sugars e3 k2 d7 k2 e3, PS)” as the sequence, how does the target mRNA inhibition (HepG2, 3 µM) read?
A: 8%

Q: Which target mRNA inhibition (HepG2, 5 µM) does the source give for “CTACAGGTACTTTAAAG (sugars e2 k2 d8 k2 e3, PS)” here?
A: 2%

Q: How did the target mRNA inhibition (HepG2, 3 µM) turn out when “AGAAATTCTGACAAGTT (sugars e3 k2 d7 k2 e3, PS)” was run?
A: 8%

Q: Which target mRNA inhibition (HepG2, 3 µM) does the source give for “CCTTCTGCTCGAAATTGATG (sugars e5 d10 e5, PS)” here?
A: 53%

Q: Which target mRNA inhibition (HepG2, 5 µM) does the source give for “CACAGGCTTGAATGACA (sugars e2 k2 d8 k2 e3, PS)” here?
A: 34%

Q: “TCTGCTCGAAATTGATGATG (sugars e5 d10 e5, PS)” was tested. Which target mRNA inhibition (HepG2, 4 µM) did it give?
A: 14%

Q: For “TTAATGTTTATCAGGAT (sugars e4 d8 k2 e3, linkages s1 o2 s9 o2 s2)”, which target mRNA inhibition (A431, 0.062 µM) is on record?
A: 26%

Q: And the target mRNA inhibition (A431, 0.185 µM)?
A: 30%

Q: And the target mRNA inhibition (A431, 0.556 µM)?
A: 58%

Q: What about the target mRNA inhibition (A431, 0.6 µM) of the same sequence?
A: 50%

Q: What about the target mRNA inhibition (A431, 1.667 µM) of the same sequence?
A: 64%

Q: And the target mRNA inhibition (A431, 5 µM)?
A: 68%

Q: What about the target mRNA inhibition (A431, 15 µM) of the same sequence?
A: 78%

Q: And the target mRNA inhibition (SH-SY5Y, 0.062 µM)?
A: 11%

Q: And the target mRNA inhibition (SH-SY5Y, 0.185 µM)?
A: 44%

Q: What about the target mRNA inhibition (SH-SY5Y, 0.556 µM) of the same sequence?
A: 53%

Q: And the target mRNA inhibition (SH-SY5Y, 1.667 µM)?
A: 75%

Q: What about the target mRNA inhibition (SH-SY5Y, 5 µM) of the same sequence?
A: 77%

Q: And the target mRNA inhibition (SH-SY5Y, 15 µM)?
A: 93%

Q: How did the target mRNA inhibition (HepG2, 5 µM) turn out when “ATAAGTGCCATACAGGG (sugars e2 k2 d9 k2 e2, PS)” was run?
A: 46%

Q: Which results are given for “GGATACATTTCTACAGCT (sugars e5 d8 e5, linkages s1 o3 s9 o2 s2)”?
A: target mRNA inhibition (A431, 0.12 µM): 0%; target mRNA inhibition (A431, 0.6 µM): 25%; target mRNA inhibition (A431, 3 µM): 29%; target mRNA inhibition (A431, 15 µM): 50%; target mRNA inhibition (HepG2, 0.222 µM): 38%; target mRNA inhibition (HepG2, 0.667 µM): 62%; target mRNA inhibition (HepG2, 2 µM): 82%; target mRNA inhibition (HepG2, 6 µM): 94%

Q: How did the target mRNA inhibition (HepG2, 3 µM) turn out when “CAAGGGAATGTTTATTG (sugars e3 k2 d7 k2 e3, PS)” was run?
A: 19%

Q: How did the target mRNA inhibition (HepG2, 3 µM) turn out when “ACTTTCTTCATTTCCAC (sugars e3 k2 d7 k2 e3, PS)” was run?
A: 15%

Q: How did the target mRNA inhibition (HepG2, 3 µM) turn out when “TGGATAGAGGATTAAAG (sugars e3 k2 d7 k2 e3, PS)” was run?
A: 23%

Q: How did the target mRNA inhibition (A431, 0.12 µM) turn out when “TGTTTAATGTTTATCAGG (sugars e5 d8 e5, linkages s1 o3 s9 o2 s2)” was run?
A: 6%

Q: And the target mRNA inhibition (A431, 0.6 µM)?
A: 26%

Q: And the target mRNA inhibition (A431, 3 µM)?
A: 29%

Q: And the target mRNA inhibition (A431, 15 µM)?
A: 33%

Q: What about the target mRNA inhibition (HepG2, 0.222 µM) of the same sequence?
A: 14%

Q: What about the target mRNA inhibition (HepG2, 0.667 µM) of the same sequence?
A: 39%

Q: And the target mRNA inhibition (HepG2, 2 µM)?
A: 59%

Q: What about the target mRNA inhibition (HepG2, 6 µM) of the same sequence?
A: 77%

Q: “ACAGTGTTTAATGTTTA (sugars e2 k2 d8 k2 e3, linkages s1 o2 s9 o2 s2)” was tested. Which target mRNA inhibition (A431, 0.12 µM) did it give?
A: 17%

Q: What about the target mRNA inhibition (A431, 0.6 µM) of the same sequence?
A: 8%

Q: And the target mRNA inhibition (A431, 3 µM)?
A: 26%

Q: What about the target mRNA inhibition (A431, 15 µM) of the same sequence?
A: 37%

Q: And the target mRNA inhibition (HepG2, 0.222 µM)?
A: 61%

Q: And the target mRNA inhibition (HepG2, 0.667 µM)?
A: 73%

Q: And the target mRNA inhibition (HepG2, 2 µM)?
A: 91%

Q: And the target mRNA inhibition (HepG2, 6 µM)?
A: 88%

Q: How did the target mRNA inhibition (HepG2, 4 µM) turn out when “AATTACACCACAAGCCA (sugars e2 k2 d9 k2 e2, PS)” was run?
A: 56%

Q: For “AAATTCTGACAAGTTTA (sugars e3 k2 d7 k2 e3, PS)”, which target mRNA inhibition (HepG2, 3 µM) is on record?
A: 21%

Q: Which target mRNA inhibition (HepG2, 5 µM) does the source give for “CTGGCAAAATACAGGTC (sugars e2 k2 d8 k2 e3, PS)” here?
A: 25%

Q: How did the target mRNA inhibition (HepG2, 3 µM) turn out when “ACCTTCACTGGTCCATT (sugars e3 k2 d7 k2 e3, PS)” was run?
A: 44%

Q: How did the target mRNA inhibition (HepG2, 4 µM) turn out when “AGCTAGCAGGATAACAG (sugars e2 k2 d9 k2 e2, PS)” was run?
A: 54%

Q: For “TGCTCGAAATTGATGATGCC (sugars e5 d10 e5, PS)”, which target mRNA inhibition (HepG2, 4 µM) is on record?
A: 20%

Q: With “ACTTTCCTTCTGCTCGA (sugars e3 k2 d7 k2 e3, PS)” as the sequence, how does the target mRNA inhibition (HepG2, 3 µM) read?
A: 0%

Q: For “ATCTTCCAAGTGATCAT (sugars e2 k2 d8 k2 e3, PS)”, which target mRNA inhibition (HepG2, 5 µM) is on record?
A: 38%

Q: Which target mRNA inhibition (HepG2, 4 µM) does the source give for “TCCTGGTTCCGAGGACTGCA (sugars e5 d10 e5, PS)” here?
A: 24%

Q: “GCCTCAGACTACATCCA (sugars e2 k2 d8 k2 e3, PS)” was tested. Which target mRNA inhibition (HepG2, 4 µM) did it give?
A: 69%

Q: “GTCTCCTGAGAGTGAGATCA (sugars e5 d10 e5, PS)” was tested. Which target mRNA inhibition (HepG2, 5 µM) did it give?
A: 23%

Q: For “CCAAGTGATCATAAATC (sugars e2 k2 d9 k2 e2, PS)”, which target mRNA inhibition (HepG2, 5 µM) is on record?
A: 48%

Q: How did the target mRNA inhibition (HepG2, 4 µM) turn out when “CAGCTAGCAGGATAACA (sugars e2 k2 d8 k2 e3, PS)” was run?
A: 71%

Q: With “AATGTTTATTGGGCGAT (sugars e2 k2 d9 k2 e2, PS)” as the sequence, how does the target mRNA inhibition (HepG2, 4 µM) read?
A: 64%

Q: “GTCCATTACTTTCCTTC (sugars e3 k2 d7 k2 e3, PS)” was tested. Which target mRNA inhibition (HepG2, 3 µM) did it give?
A: 33%

Q: “ATCTGTGATTTAAGTCT (sugars e2 k2 d8 k2 e3, PS)” was tested. Which target mRNA inhibition (HepG2, 5 µM) did it give?
A: 35%

Q: Which target mRNA inhibition (HepG2, 5 µM) does the source give for “TTTGGATTCTTTTAATAGCC (sugars e5 d10 e5, PS)” here?
A: 14%

Q: “AGTCATCTGCTTTTTCA (sugars e3 k2 d7 k2 e3, PS)” was tested. Which target mRNA inhibition (HepG2, 3 µM) did it give?
A: 76%

Q: “ATGTTTATTGGGCGATC (sugars e2 k2 d9 k2 e2, PS)” was tested. Which target mRNA inhibition (HepG2, 4 µM) did it give?
A: 64%
